Assays:
Format in all cases: functional, cell-based
[1] = biological target: T1, ATP-dependent translocase ABCB1 (Homo sapiens, UniProt P08183); assay: TP_TRANSPORTER: inhibition of C6-NBD-PS efflux in MDR1-expressing EPG85-257 cells
[2] = biological target: T2, Broad substrate specificity ATP-binding cassette transporter ABCG2 (Homo sapiens, UniProt Q9UNQ0); assay: TP_TRANSPORTER: inhibition of C6-NBD-PS efflux in BCRP-expressing EPG85-257 cells
T2 sequence (Q9UNQ0 whole entry): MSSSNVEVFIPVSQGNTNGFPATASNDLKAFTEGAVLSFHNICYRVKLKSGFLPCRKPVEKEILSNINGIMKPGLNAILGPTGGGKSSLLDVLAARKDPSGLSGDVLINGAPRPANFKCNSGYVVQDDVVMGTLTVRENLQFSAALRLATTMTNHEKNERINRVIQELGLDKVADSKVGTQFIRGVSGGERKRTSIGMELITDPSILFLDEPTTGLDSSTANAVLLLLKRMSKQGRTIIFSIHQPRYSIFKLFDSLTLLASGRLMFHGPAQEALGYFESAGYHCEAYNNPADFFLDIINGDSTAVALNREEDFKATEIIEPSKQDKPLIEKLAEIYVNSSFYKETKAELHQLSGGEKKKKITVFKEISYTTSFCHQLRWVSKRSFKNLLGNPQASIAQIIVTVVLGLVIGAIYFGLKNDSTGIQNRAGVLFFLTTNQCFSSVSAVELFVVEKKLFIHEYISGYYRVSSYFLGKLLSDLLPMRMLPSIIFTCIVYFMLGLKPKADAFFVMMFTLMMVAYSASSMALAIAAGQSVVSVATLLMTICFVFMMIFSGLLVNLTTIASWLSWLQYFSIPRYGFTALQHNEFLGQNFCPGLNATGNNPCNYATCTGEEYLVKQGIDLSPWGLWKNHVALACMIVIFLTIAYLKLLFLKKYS

[3] = biological target: T2, Broad substrate specificity ATP-binding cassette transporter ABCG2; assay: TP_TRANSPORTER: efflux in BCRP-expressing EPG85-257 cells
[4] = biological target: T1, ATP-dependent translocase ABCB1; assay: TP_TRANSPORTER: efflux in MDR1-expressing EPG85-257 cells

T1 sequence (P08183 whole entry): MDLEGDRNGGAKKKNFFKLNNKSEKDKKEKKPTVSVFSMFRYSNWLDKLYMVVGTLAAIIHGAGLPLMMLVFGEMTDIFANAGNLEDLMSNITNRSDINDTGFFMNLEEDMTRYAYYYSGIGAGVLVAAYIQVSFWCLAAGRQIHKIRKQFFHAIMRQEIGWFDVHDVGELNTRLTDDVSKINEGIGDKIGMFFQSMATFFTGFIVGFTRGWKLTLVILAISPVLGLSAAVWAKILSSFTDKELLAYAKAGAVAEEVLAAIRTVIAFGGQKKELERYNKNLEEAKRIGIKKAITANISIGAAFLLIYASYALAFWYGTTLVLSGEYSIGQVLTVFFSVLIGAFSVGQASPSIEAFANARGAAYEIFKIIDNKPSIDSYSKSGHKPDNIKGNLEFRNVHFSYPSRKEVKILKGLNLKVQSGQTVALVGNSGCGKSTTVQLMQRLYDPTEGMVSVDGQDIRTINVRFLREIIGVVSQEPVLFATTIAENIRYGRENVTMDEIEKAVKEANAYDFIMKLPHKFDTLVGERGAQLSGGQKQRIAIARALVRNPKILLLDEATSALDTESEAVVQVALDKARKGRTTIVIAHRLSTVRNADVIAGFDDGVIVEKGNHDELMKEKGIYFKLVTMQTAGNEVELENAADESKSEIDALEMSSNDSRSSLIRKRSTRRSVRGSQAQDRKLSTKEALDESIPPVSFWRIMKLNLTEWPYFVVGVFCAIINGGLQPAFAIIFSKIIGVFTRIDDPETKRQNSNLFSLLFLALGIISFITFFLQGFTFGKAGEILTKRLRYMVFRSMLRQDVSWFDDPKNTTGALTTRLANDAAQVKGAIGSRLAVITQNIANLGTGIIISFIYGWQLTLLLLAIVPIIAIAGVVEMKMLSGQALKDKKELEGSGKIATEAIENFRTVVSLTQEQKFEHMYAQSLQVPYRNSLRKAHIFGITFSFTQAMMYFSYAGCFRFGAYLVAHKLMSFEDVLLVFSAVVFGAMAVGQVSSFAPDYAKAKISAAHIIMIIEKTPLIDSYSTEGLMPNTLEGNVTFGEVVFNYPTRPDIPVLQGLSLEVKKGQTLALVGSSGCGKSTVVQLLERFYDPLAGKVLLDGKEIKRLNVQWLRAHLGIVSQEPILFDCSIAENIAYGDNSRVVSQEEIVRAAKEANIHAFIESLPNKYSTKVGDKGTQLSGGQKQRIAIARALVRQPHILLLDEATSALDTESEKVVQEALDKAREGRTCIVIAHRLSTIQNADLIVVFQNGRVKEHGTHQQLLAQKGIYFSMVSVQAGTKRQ

| Structure (SMILES) | Activity [1] | Activity [2] | Activity [3] | Activity [4] |
| --- | --- | --- | --- | --- |
| COc1ccc2c(C[C@@H]3NC(=O)[C@@H]4CCCN4C3=O)c(CC=C(C)C)[nH]c2c1 [TRYPROSTATIN A] | inhibitor [] | inhibitor [] |  |  |
| CCCCCCCC/C=C\CCCCCCCC(=O)OC(COC(=O)CCCCCCC/C=C/CCCCCCCC)COP(=O)(O)OC[C@H](Nc1ccc([N+](=O)[O-])c2nonc12)C(=O)O (stereo partly specified) |  |  | substrate [] | substrate [] |
| CCCCCCCCCCCCCCCC(=O)OCC(COP(=O)([O-])OCC[N+](C)(C)C)OC(=O)CCCCCNc1ccc([N+](=O)[O-])c2nonc12 (stereo unspecified) |  |  | substrate [] |  |
| COc1cc2c(cc1OC)CN(CCc1ccc(NC(=O)c3cccc4c(=O)c5cccc(OC)c5[nH]c34)cc1)CC2.Cl [ELACRIDAR HYDROCHLORIDE] |  | inhibitor [] |  |  |

— ChEMBL document CHEMBL2073819, “Enhanced exposure of phosphatidylserine in human gastric carcinoma cells overexpressing the half-size ABC transporter BCRP (ABCG2)” (Biochem J, 2003)
